Experimental data: patent US8609651B2, “Pharmaceutical compositions of benzodiazepines and method of use thereof” (Jazz Pharmaceuticals, Inc., priority 2006, dated 2013)
Converted amounts (≈) assume the structure as drawn.

Assays:
[1] = Solubilities of clonazepam in glycol ethers at 3 temperatures; conditions: neat solvent, organic solvent or mixture, thermodynamic from solid
Procedure: The vials were then centrifuged at −5° C. and 5° C. for the −15° C. and 5° C. samples, respectively, at 5000 rpm for 2 minutes.

[2] = qEEG mapping in volunteers; format: in vivo; conditions: human, oral
[3] = Solubility of benzodiazepines in DEGEE (Transcutol) at 25° C. and −16° C.; conditions: organic solvent or mixture, thermodynamic from solid
Procedure: The solubilities of several other benzodiazepines were measured in DEGEE (diethylene glycol monoethyl ether, transcutol) by the techniques of Example 1. Initially, 10 mg of the drug was loaded in the glass vial and 130-μL of DEGEE was added, and the samples were sonicated for 10 minutes. […] Samples were stored at −16° C. and 25° C. overnight, and centrifuged (5000 rpm, 2 minutes, −10° C. and 23° C. for the −16° C. and 25° C. samples, respectively). […] Clonazepam was measured by UV at 350 nm; all others at 300 nm.

[4] = Psychomotor, cognitive and subjective tests in volunteers; format: in vivo; conditions: human
[5] = Human safety and tolerability (side effects); format: in vivo
Text: Somnolence was reported by 10 of 15 (approximately 67%) subjects after intranasal dosing and 13 of 15 (approximately 87%) subjects after oral dosing. Approximately 93% of the subjects reported somnolence or sedation ( 11/15 for somnolence and 3/15 for sedation) after intravenous dosing. Nasal discomfort was reported by 12 of 15 subjects (approximately 80%) after intranasal dosing.

Which solubility ([1]; 1,2-dimethyxoethane, 5 °C) does the source give for `O=C1CN=C(c2ccccc2Cl)c2cc([N+](=O)[O-])ccc2N1` [Clonazepam, 5-(2-chlorophenyl)-1,3-dihydro-7-nitro-2H-1,4-benzodiazepin-2-one] here?
Its solubility is 35.7 mg/mL (≈ 113 mM).

What about the solubility ([1]; 1,2-dimethyxoethane, 25 °C) of the same molecule?
The solubility was 39.3 mg/mL (≈ 124 mM).

What about the solubility ([1]; 1,2-dimethyxoethane, -15 °C) of the same molecule?
The solubility was 35.2 mg/mL (≈ 111 mM).

What about the solubility ([1]; di(ethylene glycol) diethyl ether, 5 °C) of the same molecule?
The solubility was 18.5 mg/mL (≈ 58.6 mM).

And the solubility ([1]; di(ethylene glycol) diethyl ether, 25 °C)?
The solubility was 19 mg/mL (≈ 60.2 mM).

And the solubility ([1]; di(ethylene glycol) diethyl ether, -15 °C)?
Its solubility is 19.5 mg/mL (≈ 61.8 mM).

What about the solubility ([1]; di(ethylene glycol) methyl ether, 5 °C) of the same molecule?
The solubility was 53.9 mg/mL (≈ 171 mM).

What about the solubility ([1]; di(ethylene glycol) methyl ether, 25 °C) of the same molecule?
Its solubility is 56.4 mg/mL (≈ 179 mM).

And the solubility ([1]; di(ethylene glycol) methyl ether, -15 °C)?
Its solubility is 58.1 mg/mL (≈ 184 mM).

And the solubility ([1]; diethylene glycol monoethyl ether (DEGEE), 25 °C)?
The solubility was 41.8 mg/mL (≈ 132 mM).

And the solubility ([1]; diethylene glycol monoethyl ether, 5 °C)?
Its solubility is 37.7 mg/mL (≈ 119 mM).

What about the solubility ([1]; diethylene glycol monoethyl ether, -15 °C) of the same molecule?
The solubility was 43.3 mg/mL (≈ 137 mM).

What about the “time after dosing at which EEG pattern (increased delta and beta, decreased alpha and theta) was noted” value [2] of the same molecule?
The value was “approximately 2 hours”.

And the solubility ([3]; 25 °C)?
Its solubility is 38.9 mg/mL (≈ 123 mM).

And the solubility ([3]; -16 °C)?
Its solubility is 35.3 mg/mL (≈ 112 mM).

And the “time at which psychomotor and subjective effects were first apparent” value ([4]; intranasal)?
Its value is “approximately 30 minutes”.

What about the “time at which psychomotor and subjective effects were first apparent” value ([4]; intravenous) of the same molecule?
The value was “approximately 30 minutes”.

What about the “time at which psychomotor and subjective effects were first apparent” value ([4]; oral) of the same molecule?
Its value is “approximately 2 hours”.

What about the subjects reporting somnolence ([5]; after intranasal dosing, 10 of 15) of the same molecule?
Its subjects reporting somnolence is “approximately 67%”.

What about the “subjects reporting nasal discomfort” value ([5]; after intranasal dosing, 12 of 15) of the same molecule?
The value was “approximately 80%”.

And the “subjects reporting somnolence or sedation” value ([5]; after intravenous dosing)?
Its value is “Approximately 93%”.

And the subjects with sedation ([5]; after intravenous dosing)?
Its subjects with sedation is 3/15.

And the subjects with somnolence ([5]; after intravenous dosing)?
The subjects with somnolence was 11/15.

And the subjects reporting somnolence ([5]; after oral dosing, 13 of 15)?
Its subjects reporting somnolence is “approximately 87%”.

What about the “changes in laboratory parameters” value ([5]; human) of the same molecule?
Its value is “no clinically relevant changes”.

What about the “Somnolence reported in the study” value ([5]; human, all routes) of the same molecule?
The value was 75.6%.

And the “nasal discomfort reported in the study” value ([5]; human, all routes)?
The value was 26.7%.
